Measurements published in US10577322B2, “5-methoxytryptophan and its derivatives and uses thereof” (National Health Research Institutes, priority 2015, dated 2020).

How the values were obtained:
NF-κB = NF-κB promoter-luciferase assay in RAW264.7 cells; assay type: cell-based, mouse; conditions: LPS 8 h
Experimental: RAW264.7 macrophages were cotransfected with COX-2 promoter-luciferase, IL-6 promoter-luciferase constructs as previously described (Lee, G. L., et al.) or p5xNF-κB-luciferase (Stratagene) and pcDNA3.1-β-galactosidase plasmids using FuGENE 6 (Roche). After overnight transfection, the cells were incubated with or without LPS in the presence or absence of 5-MTP for 8 h. After treatment, cells were lysed, and luciferase activity was measured using an assay kit (Promega). β-galactosidase activity was used to normalize the data.
After pretreating RAW264.7 cells with different concentrations of 5-MTP for 30 min, cells were stimulated with LPS for 8 h. NF-κB promoter activity as measured by NF-κB promoter-luciferase assay.

caspase-3 = experiment: Caspase-3 activity in splenocytes (fluorogenic substrate); assay type: in vivo, mice; conditions: 5-MTP 100 mg/kg, 16 h
Experimental: Caspase-3 activity was determined by the cleavage of the fluorometric substrate z-DEVD-AMC (Upstate Biotechnology) as previously described (Kuo, C. C., Liang, C. M., Lai, C. Y. & Liang, S. M. Involvement of heat shock protein(Hsp)90 beta but not Hsp90 alpha in antiapoptotic effect of CpG-B oligodeoxynucleotide. J Immunol 178, 6100-6108 (2007)).
In addition, caspase-3 activity in splenocytes of mice treated with saline, LPS or LPS plus 5-MTP (100 mg/kg) for 16 h was measured by fluorogenic substrate as described above. The results are shown in FIG. 9B, in which the error bare denotes mean±SD (n=6 mice/group).

[1] = tested on: LPS-induced cytokine production; assay type: cell-based, mouse
Experimental: Mouse RAW264.7 macrophages were from the American Type Culture Collection and cultured in DMEM containing 10% FBS. Cells were typically pre-incubated with or without 5-MTP (Sigma-Aldrich) for 30 min before LPS treatment, unless specified otherwise. The duration of LPS (100 ng/ml) treatment varied depending on the experiment.
Cytokine levels in the culture supernatants and serum were determined in microtiter plates (96-well) by a specific sandwich ELISA (Biosource) as previously described (Wu, J. Y. & Kuo, C. C. Pivotal role of ADP-ribosylation factor 6 in Toll-like receptor 9-mediated immune signaling. J Biol Chem 287, 4323-4334 (2012)) (Lee, G. L., et al. TLR 2 induces vascular smooth muscle cell migration through cAMP response element-binding protein-mediated interleukin-6 production. Arterioscler Thromb Vasc Biol 32, 2751-2760 (2012); hereinafter, Lee, G. L., et al.).

iNOS = iNOS immunohistochemistry in lung tissues of LPS-treated mice; assay type: in vivo; conditions: LPS 60 mg/kg; 12 h, 16 h and 24 h
Experimental: Prior to immunohistochemical detection of COX-2, iNOS, Ly6g, or cleaved caspase-3 in lung sections, sections were deparaffinized with xylene, progressively rehydrated through graded alcohols. Antigen sites were retrieved by heating the sections on slides in pH 8 EDTA antigen. retrieval (Trilogy; Cell Marque Corporation) in electric pressure cooker for 15 min. […] All antibodies described hereafter were diluted in blocking buffer. Sections were incubated at room temperature for 2 h with primary antibody and then washed in PBST. The sections were incubated with primary antibody amplifier quanta (Thermo) for 10 minutes. After rinsing with PBST, the sections were incubated with HRP Polymer Quanto (Thermo) for 10 minutes and washed three times with PBST. COX-2, iNOS, Ly6g and cleaved caspase-3 were visualized by the addition of DAB Quanto Chromogen: Substrate for 3 minutes. Tissues were also counterstained with hematoxylin.
Moreover, paraffin-embedded sections were prepared from lungs of mice injected with 60 mg/kg LPS with or without saline or 5-MTP at 12 h, 16 h and 24 h. COX-2 and inducible nitric oxide synthase (iNOS) protein levels in lung tissues were determined by immunohistochemistry by staining with anti-COX-2 and anti-iNOS antibodies, respectively. The results are shown in FIGS. 6A-6B, in which scale bars represent 100 μm. […]

chemokines = experiment: Serum chemokine level in LPS-injected mice (ELISA); assay type: in vivo; conditions: 5-MTP 23.4 mg/kg, 24 h
Experimental: Furthermore, chemokine level was measured by ELISA in the serum of saline or LPS-injected mice with or without saline or 5-MTP (23.4 mg/kg) after 24 h (n=10). The results shown in FIG. 8C indicate that LPS-induced elevation of chemokines, CXCL1, MCP-1, RANTES and eotaxin in the serum was blunted by 5-MTP treatment at 24 h.

ligated carotid arteries = experiment: Neointima formation model of carotid artery ligation; assay type: in vivo, mice; conditions: 100 mg/kg IP 3 times a week, four weeks after ligation
Experimental: Approximately 12-week-old male C57BL/6 wild-type mice ational Laboratory Animal Center, Taiwan) were subjected to a neointima formation model by ligating the left common carotid artery (LCCA). The Institutional. Animal Care and Use Committee of National Health Research Institutes, Taiwan approved all experimental procedures (#NHRI-IACUC-101144-A). Mice were anesthetized with tribromoethanol solution at a dose of 250 mg/kg by IP injection. After assessing the level of anesthesia by checking the pedal reflex, the LCCA was exposed through a midline incision in the neck. […] Following surgery, mice were treated with vehicle (PBS) or 100 mg/kg of 5-MTP (Sigma, M4001) by IP injection 3 times a week. 5-MTP was dissolved in 0.05 N HCl (made in PBS) first, pH adjusted to 7.4 by NaOH, and then a stock solution of 6.5 mg/mL was prepared with PBS. The stock solution was then sterilized by filtering through a 0.22 μm-filter before use. At indicated time points (4, 7, and 28 d after surgery), mice were anesthetized with tribromoethanol solution (500-750 mg/kg), perfused with saline, followed by 10% neutral-buffered-formalin. The contralateral control (right common carotid artery) and ligated LCCA were then carefully dissected, excised, and immersed in 10% formalin before processing and embedding in paraffin. […]

For `COc1ccc2[nH]cc(C[C@H](N)C(=O)O)c2c1` [5-MTP, 5-methoxytryptophan], the “NF-κB promoter activity (transactivation)” value (NF-κB) was “suppressed NF-κB transactivation in a concentration-dependent manner”, the “LPS-induced caspase-3 cleavage in spleen cells” value (caspase-3) was “prevented” and the “Suppressive activity in LPS-induced cytokine production” value [1] was “+”. For the same compound, the “iNOS expression in lung tissues” value (iNOS) was “suppresses”, the “LPS-induced elevation of CXCL1 in serum” value (chemokines) was “blunted” and the “LPS-induced elevation of MCP-1 in serum” value (chemokines) was “blunted”. For the same compound, the “LPS-induced elevation of RANTES in serum” value (chemokines) was “blunted”, the “LPS-induced elevation of eotaxin in serum” value (chemokines) was “blunted” and the intima/media area ratio (ligated carotid arteries) was 0.58±0.11. The intimal thickening (ligated carotid arteries) was “reduced”.
